{"source": "patent US6649631B1", "about": "“Compositions and methods for treating bone deficit conditions” (The Board of Regents of the University of Texas System, priority 1999, dated 2003)", "key": {"[1]": {"system": "BMP2 promoter", "assay": "High throughput screening: BMP-2 promoter luciferase reporter in 2T3-BMP-2-LUC cells", "assay_type": "cell-based, mouse", "text": "A rapid throughput screening test for compounds capable of stimulating expression of a reporter gene linked to a BMP promoter (a surrogate for the production of bone morphogenetic factors that are endogenously produced) is described in WO96/38590 published Dec. 5, 1996, the contents of which are incorporated herein by reference. This assay is also described as a portion of a study of immortalized murine osteoblasts (derived from a mouse expressing a transgene composed of a BMP2 promoter driving expression of T-antigen) in Ghosh-Choudhery, N. et al. Endocrinology (1996) 137:331-39. In this study, the immortalized cells were stably transfected with a plasmid containing a luciferase reporter gene driven by a mouse BMP2 promoter (−2736/114 bp), and responded in a dose-dependent manner to recombinant human BMP2.\nBriefly, the assay utilizes cells transformed permanently or transiently with constructs in which the promoter of a bone morphogenetic protein, specifically BMP2 or BMP4, is coupled to a reporter gene, typically luciferase. These transformed cells are then evaluated for the production of the reporter gene product; compounds that activate the BMP promoter will drive production of the reporter protein, which can be readily assayed. Over 40,000 compounds have been subjected to this rapid screening technique, and only a very small percentage are able to elicit a level of production of luciferase 5-fold greater than that produced by vehicle. […] The active compounds (“BMP promoter-active compounds” or “active compounds”) are useful in promoting bone or cartilage growth, and thus in the treatment of vertebrates in need of bone or cartilage growth.\nSeveral tens of thousands of compounds were tested in the assay system set forth in WO 96/38590, published Dec. 5, 1996, and incorporated herein by reference. […]\nThe treated cells were incubated for 24 hours at 37° C. and 5% CO2. […] Luminescence was measured on an automated 96-well luminometer, and was expressed as either picograms of luciferase activity per well or as picograms of luciferase activity per microgram of protein. […]"}, "[2]": {"system": "TMC-23 cells", "assay": "Chondrogenic activity: alkaline phosphatase (ALP) activity in TMC-23 cells", "assay_type": "cell-based, mouse", "settings": "day 2, 10^−9 M", "procedure": "For measurement of alkaline phosphatase (ALP) activity, the technique of LF Bonewald et al. J. Biol Chem (1992) 267:8943-49, was employed. Briefly, TMC-23 cells were plated in 96 well microtiter plates in DMEM containing 10% FCS at 4×10^3 cells/well. Two days after plating, the cells were confluent and the medium was replaced with fresh medium containing 10% FCS and different concentrations of compounds or recombinant BMP-2. After an additional 2 or 5 days incubation, the plates were washed twice with PBS, and then lysing solution (0.05% Triton X-100) was added (100 μl/well). The cells were lysed by three freeze-thaw cycles of −70° C. (30 min), followed by 37° C. (30 min with shaking). Twenty microliters of cell lysates were assayed with 80 μl of 5 mM p-nitrophenol phosphate in 1.5 M 2-amino-2-methyl-propanol buffer, pH 10.3 (Sigma ALP kit, Sigma Chemical Co., St. Louis, Mo.) for 10 min at 37° C. The reaction was stopped by the addition of 100 μl of 0.5 M NaOH. The spectrophotometric absorbance at 405 nm was compared to that of p-nitrophenol standards to estimate ALP activity in the samples. The protein content of the cell lysates was determined by the Bio-Rad protein assay kit (Bio-Rad, Hercules, Calif.). Specific activity was calculated using these two parameters."}, "[3]": {"system": "Swiss white mice", "assay": "In vivo assay of effects of compounds on murine calvarial bone growth", "design": "species or system mouse", "settings": "as compared to a vehicle control", "protocol": "Male ICR Swiss white mice, aged 4-6 weeks and weighing 13-26 gm, are employed, using 4-5 mice per group. The calvarial bone growth assay is performed as described in PCT application WO 95/24211. Briefly, the test compound or appropriate control vehicle is injected into the subcutaneous tissue over the right calvaria of normal mice. Typically, the control vehicle is the vehicle in which the compound was solubilized, and is PBS containing 5% DMSO or is PBS containing Tween (2 μl/10 ml). The animals are sacrificed on day 14 and bone growth measured by histomorphometry. Bone samples for quantitation are cleaned from adjacent tissues and fixed in 10% buffered formalin for 24-48 hours, decalcified in 14% EDTA for 1-3 weeks, processed through graded alcohols; and embedded in paraffin wax. Three to five μm sections of the calvaria are prepared, and representative sections are selected for histomorphometric assessment of the effects on bone formation and bone resorption. Sections are measured by using a camera lucida attachment to trace directly the microscopic image onto a digitizing plate. Bone changes are measured on sections cut 200 μm apart, over 4 adjacent 1×1 mm fields on both the injected and noninjected sides of the calvaria. […]\nSimilar results are obtained when new bone width in microns is measured. […]"}, "[4]": {"system": "neonatal mouse calvaria", "assay": "Ex vivo (neonatal mouse) calvarial bone growth assay", "assay_type": "cell-based", "protocol": "This assay is similar to that described by Gowen M. & Mundy G. J Immunol (1986) 136:2478-82. Briefly, four days after birth, the front and parietal bones of ICR Swiss white mouse pups are removed by microdissection and split along the sagittal suture. The bones are incubated in BGJb medium (Irvine Scientific, Santa Ana, Calif.) plus 0.02% (or lower concentration) β-methylcyclodextrin, wherein the medium also contains test or control substances, at 37° C. in a humidified atmosphere of 5% CO2 and 95% air for 96 hours.\nFollowing this, the bones are removed from the incubation media and fixed in 10% buffered formalin for 24-48 hours, decalcified in 14% EDTA for 1 week, processed through graded alcohols; and embedded in paraffin wax. Three μm sections of the calvaria are prepared. Representative sections are selected for histomorphometric assessment of bone formation and bone resorption. Bone changes are measured on sections cut 200 μm apart. Osteoblasts and osteoclasts are identified by their distinctive morphology.\nA number of compounds, in particular, those studied in connection with lead compounds classified as hydrazone/hydrazides (H) exemplified by 59-0045, benzothiazoles (T) exemplified by 59-0104, bis-pyridines (P) exemplified by 59-0145, and quinolines/quinoxalines (Q) exemplified by 59-0197, were tested in the ex vivo calvarial assay described hereinabove.\nThe scores are assigned to bone formation on the ectocranial periosteal surface. The area immediately surrounding midline suture is excluded from analysis.\nIn all samples, toxicity, ectopic new or woven bone formation associated with osteoblasts, and osteoblast size as reflections of relative activity are noted."}, "[5]": {"system": "ovariectomized rats", "assay": "Stimulation of bone growth in ovariectomized rats (OVX assay)", "assay_type": "in vivo, rat", "protocol": "Lead compounds also be tested in acute ovariectomized animals (prevention model) using an in vivo dosing assay. Such assays may also include an estrogen-treated group as a control. An exemplary subcutaneous dosing assay is performed as follows:\nIn a typical study, 80 three-month-old female Sprague-Dawley rats are weight-matched and divided into eight groups, with ten animals in each group. This includes a baseline control group of animals sacrificed at the initiation of the study; three control groups (sham ovariectomized (sham OVX)+vehicle only; ovariectomized (OVX)+vehicle only; PBS-treated OVX); and a control OVX group that is administered a compound known to promote bone growth. Three dosage levels of the compound to be tested are administered to the remaining three groups of OVX animals.\nSince ovariectomy (OVX) induces hyperphagia, all OVX animals are pair-fed with sham OVX animals throughout the 35 day study. Briefly, test compound, positive control compound, PBS, or vehicle alone is administered subcutaneously once per day for 35 days. Alternatively, test compound can be formulated in implantable pellets that are implanted for 35 days, or may be administered orally, such as by gastric gavage. All animals, including sham OVX/vehicle and OVX/vehicle groups, are injected intraperitoneally with calcein nine days and two days before sacrifice (two injections of calcein administered each designated day, to ensure proper labeling of newly formed bone). Weekly body weights are determined. At the end of the 35-day cycle, the animals' blood and tissues are processed as described above.\nLead compounds may also be tested in chronic OVX animals (treatment model). An exemplary protocol for treatment of established bone loss in ovariectomized animals that can be used to assess efficacy of anabolic agents may be performed as follows. Briefly, 80 to 100 six month old female, Sprague-Dawley rats are subjected to sham surgery (sham OVX) or ovariectomy (OVX) at time 0, and 10 rats are sacrificed to serve as baseline controls. Body weights are recorded weekly during the experiment. After approximately 6 weeks of bone depletion (42 days), 10 sham OVX and 10 OVX rats are randomly selected for sacrifice as depletion period controls. Of the remaining animals, 10 sham OVX and 10 OVX rats are used as placebo-treated controls. The remaining OVX animals are treated with 3 to 5 doses of test drug for a period of 5 weeks (35 days). As a postitive control, a group of OVX rats can be treated with an agent such as PTH, a known anabolic agent in this model (Kimmel et al. Endocrinology (1993) 132:1577-84). To determine effects on bone formation, the following procedure can be followed. The femurs, tibiae and lumbar vertebrae 1 to 4 are excised and collected. The proximal left and right tibiae are used for pqCT measurements, cancellous bone mineral density (BMD) (gravimetric determination), and histology, while the midshaft of each tibiae is subjected to cortical BMD or histology. The femurs are prepared for pqCT scanning of the midshaft prior to biomechanical testing. With respect to lumbar vertebrae (LV), LV2 are processed for BMD (pqCT may also be performed); LV3 are prepared for undecalcified bone histology; and LV4 are processed for mechanical testing.\nThe compound 59-0145 was tested at various concentrations in the OVX assay conducted as described above. The increase in bone volume was measured by two different groups; one group found 5 μg/kg/day of 59-0145 gave 21% increase over control whereas the second group found a 71% increase. At 50 μg/kg/day, the first group found a 31% increase, and the second a 54% increase.\nIn another experiment, 3 month old Sprague Dawley rats were ovariectomized and depleted for six weeks. At the end of the six weeks, treatment was started with subcutaneous administration of compound 59-0145. The treatment continued for 10 weeks. […]"}}, "data": [{"compound": "c1ccc(N=NC2=NNc3ccccc3S2)cc1", "note": "[Compound 59-0008, 3-phenylazo-1H-4,1,2-benzothiadiazine]", "values": [{"measurement": "response at maximal activity", "setting": "[1]; at about 3 μM", "result": "approximately 175 light emission units"}, {"measurement": "increase of ALP levels compared to the vehicle control", "setting": "[2]", "result": "approximately 3 fold"}, {"measurement": "increase in width of new calvarial bone", "setting": "[3]", "result": 4, "unit": "fold"}]}, {"compound": "CN(C)c1ccc(C=Cc2cnc3ccccc3n2)cc1", "note": "[Compound 59-0019]", "values": [{"measurement": "activity in the ex vivo calvarial assay, in words", "setting": "[4]", "result": "at least some indication of activity"}]}, {"compound": "FC(F)(F)c1ccc(NCCNc2ccc(C(F)(F)F)cn2)nc1", "note": "[Compound 59-0145]", "values": [{"measurement": "increase in bone volume over control", "setting": "[5]; 5 μg/kg/day, first group of measurers", "result": 21, "unit": "%"}, {"measurement": "increase in bone volume over control", "setting": "[5]; 5 μg/kg/day, second group of measurers", "result": 71, "unit": "%"}, {"measurement": "increase in bone volume over control", "setting": "[5]; 50 μg/kg/day, first group of measurers", "result": 31, "unit": "%"}, {"measurement": "increase in bone volume over control", "setting": "[5]; 50 μg/kg/day, second group of measurers", "result": 54, "unit": "%"}, {"measurement": "effect on lumbar vertebrae", "setting": "[5]; 5 and 50 μg/kg/day, FIG. 10", "result": "beneficial effect"}, {"measurement": "increase in trabecular bone (proximal tibia) compared to placebo-treated group", "setting": "[5]; chronic OVX rats, depleted 6 weeks, subcutaneous, 10 weeks of treatment, 50-500 μg/kg/day", "result": "significant increase"}, {"measurement": "activity in the ex vivo calvarial assay, in words", "setting": "[4]", "result": "consistent moderate activity"}]}, {"compound": "COc1cc(N(C)C)ccc1C=Cc1ccc2ccccc2n1", "note": "[Compound 59-0150]", "values": [{"measurement": "activity in the ex vivo calvarial assay, in words", "setting": "[4]", "result": "activity when measured by one group but not the other"}]}, {"compound": "CC(CNc1ccc(C(F)(F)F)cn1)Nc1ccc(C(F)(F)F)cn1", "note": "(centres unmarked) [Compound 59-0459]", "values": [{"measurement": "performance in the screening assay relative to 59-0008", "setting": "[1]", "result": "better than 59-0008"}]}, {"compound": "N#Cc1ccc(NCCNc2ccc(C(F)(F)F)cn2)nc1", "note": "[Compound 59-0483]", "values": [{"measurement": "performance in the screening assay relative to 59-0008", "setting": "[1]", "result": "better than 59-0008"}]}]}
